Results: paper PMC2095803 (Nucleic Acids Research, 2007)

Experiments:
Assay in all cases: PEP termination assay
[1] = target: T1, DeepVent(exo−) DNA polymerase (Pyrococcus sp. GB-D, UniProt Q51334, D141A/E143A); format: biochemical, Pyrococcus species GB-D
T1 sequence (Q51334 with tags, fused parts or gaps D141A/E143A): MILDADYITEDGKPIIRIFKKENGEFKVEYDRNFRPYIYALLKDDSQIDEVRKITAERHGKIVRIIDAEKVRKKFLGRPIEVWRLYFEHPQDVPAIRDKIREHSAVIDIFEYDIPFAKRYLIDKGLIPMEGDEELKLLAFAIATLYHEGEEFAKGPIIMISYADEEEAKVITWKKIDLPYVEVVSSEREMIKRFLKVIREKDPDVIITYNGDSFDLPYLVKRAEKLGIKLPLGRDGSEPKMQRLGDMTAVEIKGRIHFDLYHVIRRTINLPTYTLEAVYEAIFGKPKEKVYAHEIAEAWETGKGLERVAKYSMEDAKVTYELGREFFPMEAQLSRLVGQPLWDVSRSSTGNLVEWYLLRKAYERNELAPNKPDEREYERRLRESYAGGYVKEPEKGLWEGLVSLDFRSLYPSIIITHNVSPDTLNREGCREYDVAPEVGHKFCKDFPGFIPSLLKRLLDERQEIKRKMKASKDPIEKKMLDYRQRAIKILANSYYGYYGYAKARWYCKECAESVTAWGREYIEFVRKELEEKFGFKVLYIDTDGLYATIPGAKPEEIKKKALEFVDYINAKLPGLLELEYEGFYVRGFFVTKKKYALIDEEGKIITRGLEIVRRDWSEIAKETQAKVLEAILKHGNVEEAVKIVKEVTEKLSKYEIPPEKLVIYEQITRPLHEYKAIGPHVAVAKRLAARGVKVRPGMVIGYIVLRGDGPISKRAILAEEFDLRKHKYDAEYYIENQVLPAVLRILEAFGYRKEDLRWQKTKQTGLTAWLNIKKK

[2] = target: T2, Vent(exo−) DNA polymerase (Thermococcus litoralis, UniProt P30317, D141A/E143A); format: biochemical
T2 sequence (P30317 with tags, fused parts or gaps D141A/E143A): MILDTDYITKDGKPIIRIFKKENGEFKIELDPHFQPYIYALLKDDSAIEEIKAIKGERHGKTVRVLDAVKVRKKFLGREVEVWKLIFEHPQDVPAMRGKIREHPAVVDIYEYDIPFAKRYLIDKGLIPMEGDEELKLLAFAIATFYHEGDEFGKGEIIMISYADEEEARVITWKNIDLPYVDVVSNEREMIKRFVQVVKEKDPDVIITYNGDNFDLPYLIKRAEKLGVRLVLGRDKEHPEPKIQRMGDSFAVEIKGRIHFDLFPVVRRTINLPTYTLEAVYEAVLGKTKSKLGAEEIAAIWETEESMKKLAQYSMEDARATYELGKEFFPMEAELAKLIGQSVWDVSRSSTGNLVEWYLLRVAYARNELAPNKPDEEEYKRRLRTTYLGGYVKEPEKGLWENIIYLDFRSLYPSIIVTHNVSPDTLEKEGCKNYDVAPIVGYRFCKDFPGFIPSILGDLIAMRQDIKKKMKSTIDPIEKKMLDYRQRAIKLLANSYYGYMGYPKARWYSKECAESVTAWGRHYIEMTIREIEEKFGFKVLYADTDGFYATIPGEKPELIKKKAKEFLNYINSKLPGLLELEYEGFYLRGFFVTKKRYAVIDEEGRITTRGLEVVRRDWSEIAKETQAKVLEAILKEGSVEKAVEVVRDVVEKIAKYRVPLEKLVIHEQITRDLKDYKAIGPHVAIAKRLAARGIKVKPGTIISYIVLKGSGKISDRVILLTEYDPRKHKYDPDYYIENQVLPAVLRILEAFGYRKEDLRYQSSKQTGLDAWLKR

[3] = target: T3, Therminator II DNA polymerase (Thermococcus sp., UniProt Q56366, A485L/D141A/E143A/Y409V); format: biochemical, Thermococcus species 9ºN-7
T3 sequence (Q56366 1-775 D141A/E143A/Y409V/A485L): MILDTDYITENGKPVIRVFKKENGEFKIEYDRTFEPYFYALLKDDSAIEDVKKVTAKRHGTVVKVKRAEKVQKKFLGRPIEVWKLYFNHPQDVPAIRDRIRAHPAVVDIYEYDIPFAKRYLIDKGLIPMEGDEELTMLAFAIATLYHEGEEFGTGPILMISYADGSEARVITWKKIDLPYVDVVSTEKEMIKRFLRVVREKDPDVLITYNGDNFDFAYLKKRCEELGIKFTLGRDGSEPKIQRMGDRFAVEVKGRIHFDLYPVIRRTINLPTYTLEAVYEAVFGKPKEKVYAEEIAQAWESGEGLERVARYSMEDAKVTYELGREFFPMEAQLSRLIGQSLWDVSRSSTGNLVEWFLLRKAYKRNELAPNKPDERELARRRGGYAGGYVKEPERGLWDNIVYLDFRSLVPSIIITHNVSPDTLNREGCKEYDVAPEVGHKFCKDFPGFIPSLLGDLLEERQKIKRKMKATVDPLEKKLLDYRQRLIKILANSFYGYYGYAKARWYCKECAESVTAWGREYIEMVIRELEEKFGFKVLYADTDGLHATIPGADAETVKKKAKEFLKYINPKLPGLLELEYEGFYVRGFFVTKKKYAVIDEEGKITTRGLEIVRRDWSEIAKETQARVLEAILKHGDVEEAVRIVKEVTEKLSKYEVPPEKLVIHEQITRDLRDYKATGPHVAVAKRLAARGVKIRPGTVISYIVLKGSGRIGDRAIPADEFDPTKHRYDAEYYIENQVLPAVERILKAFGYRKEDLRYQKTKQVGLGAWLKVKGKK

[4] = target: Klenow(exo−) DNA polymerase (Escherichia coli, UniProt P00582, D355A/E357A); format: biochemical
[5] = Klenow(exo−), 25× IC50, oligoTemplate-3

For `O=[N+]([O-])c1ccccc1CNc1ncnc2c1ncn2[C@H]1C[C@H](O)[C@@H](COP(=O)(O)OP(=O)(O)OP(=O)(O)O)O1` [Compound IIIc, N^6-(2-Nitrobenzyl)-2’-deoxyadenosine-5’-triphosphate], the IC50 [1] was 11 nM, the IC50 [2] was 2.1 nM and the IC50 [3] was 30 nM. The IC50 [4] was 4.3 nM, the “% 1st Base” value [4, 5] was 76.1 ± 1.8% and the “% 2nd Base” value [4, 5] was 6.2 ± 0.5%. For the same molecule, the “% Primer” value [4, 5] was 17.7 ± 2.2%.
